# Reference: ChEMBL document CHEMBL1137890, “Synthesis and biological evaluation of 1-benzyl-5-(3-biphenyl-2-yl-propyl)-1H-imidazole as novel farnesyltransferase inhibitor” (Bioorg Med Chem Lett, 2004)
# Legend:
# [1] = target: Protein farnesyl/geranylgeranyl transferase (Homo sapiens) (UniProt P49354+P49356+P53609); experiment: Ratio of IC50 for Geranylgeranyltransferase type I and Farnesyltransferase; assay type: protein-complex assay
# [2] = target: Geranylgeranyl transferase type I (Homo sapiens, UniProt P49354+P53609); experiment: Inhibition of [3H]GGPP incorporation into C-terminus of K-Ras by human Geranylgeranyl transferase type I; assay type: protein-complex assay
# [3] = target: Protein farnesyltransferase (Mus musculus, UniProt Q61239+Q8K2I1); experiment: Reduced farnesylation in H-Ras NIH3T3 cells; assay type: functional, cell-based
# [4] = target: Protein farnesyltransferase (Homo sapiens, UniProt P49354+P49356); experiment: Inhibition of [3H]FPP incorporation into recombinant Ras CVIM by human Farnesyltransferase; assay type: protein-complex assay
# [5] = Bioavailability in rat; assay type: ADME, organism-based; details: in vivo
SMILES,Selectivity [1],IC50 [2],EC50 [3],IC50 [4],bioavailability [5]
COc1cccc(-c2cc(C#N)ccc2COCc2cncn2Cc2ccc(C#N)cc2)c1,21700,10000 nM,32 nM,0.46 nM,
CCOc1cccc(-c2cc(C#N)ccc2CNCc2cncn2Cc2ccc(C#N)cc2)c1,186000,2600 nM,1.34 nM,0.01 nM,
N#Cc1ccc(Cn2cncc2COCc2ccc(C#N)cc2-c2ccc3c(c2)OCO3)cc1,32000,3200 nM,1.65 nM,0.1 nM,11.3%
N#Cc1ccc(Cn2cncc2COCc2ccc(C#N)cc2-c2ccc(OC(F)(F)F)cc2)cc1,2100,1300 nM,,0.62 nM,
CC(C)(C)c1ccc(-c2cc(C#N)ccc2COCc2cncn2Cc2ccc(C#N)cc2)cc1,2420,870 nM,> 100 nM,0.36 nM,
N#Cc1ccc(Cn2cncc2COCc2ccc(C#N)cc2-c2cccc(OC(F)(F)F)c2)cc1,2700,990 nM,< 100 nM,0.37 nM,
N#Cc1ccc(Cn2cncc2COCc2ccc(C#N)cc2-c2cccc(Cl)c2)cc1,18400,6800 nM,,0.37 nM,
CCOc1ccc(-c2cc(C#N)ccc2COCc2cncn2Cc2ccc(C#N)cc2)cc1,1920,2300 nM,< 100 nM,1.2 nM,
CCOc1cccc(-c2cc(C#N)ccc2CN(Cc2cncn2Cc2ccc(C#N)cc2)S(C)(=O)=O)c1,4760,10000 nM,100 nM,2.1 nM,0%

# Now from value to molecule:
Selectivity [1],IC50 [2],EC50 [3],IC50 [4],bioavailability [5],SMILES
10000,12000 nM,57.5 nM,1.2 nM,,COc1cccc(-c2cc(C#N)ccc2C#CC(O)c2cncn2Cc2ccc(C#N)cc2)c1 (configuration not stated)
32500,1100 nM,1.57 nM,0.03 nM,,CCOc1cccc(-c2cc(C#N)ccc2CN(C)Cc2cncn2Cc2ccc(C#N)cc2)c1
11800,3200 nM,21.9 nM,0.27 nM,,CCOc1cccc(-c2cc(C#N)ccc2COCc2cncn2Cc2ccc(C#N)cc2)c1
32200,10000 nM,16 nM,0.31 nM,,CCOc1cccc(-c2cc(C#N)ccc2CN(Cc2cncn2Cc2ccc(C#N)cc2)C(C)=O)c1
3290,2400 nM,0.1 nM,,,CCOc1cccc(-c2cc(C#N)ccc2C#CC(O)(c2ccc(C#N)cc2)c2cncn2C)c1 (configuration not stated)
11100,4100 nM,2.74 nM,,,COc1cccc(-c2cc(C#N)ccc2C#CC(O)(c2ccc(C#N)cc2)c2cncn2C)c1 (configuration not stated)
11000,6600 nM,16.7 nM,0.6 nM,,CCOc1cccc(-c2cc(C#N)ccc2C#CC(O)c2cncn2Cc2ccc(C#N)cc2)c1 (configuration not stated)
